Experimental data taken from patent US10596173B2, “Combination therapy of an HBV capsid assembly inhibitor and an interferon” (Hoffmann-La Roche Inc., priority 2015, dated 2020).
“And” between values parts separate entries of the source, which are not always exact repeats. Equal values may be shown once.

Tests used:
HBV [1] = experiment: Combination study with Roferon in HBV infected HepaRG cells: HBV DNA in supernatant by qPCR, CalcuSyn and isobologram analysis; type: cell-based, HBV (genotype D); settings: for Overall CI: average of CI at 50%, 75% and 90%; for EC50: Hepatitis B virus, HepaRG
Procedure: HepG2.2.15 cells were cultured in DMEM+Glutamax I medium (Gibco, #21885) supplemented with 10% FBS, 1% Pen/Strep (Gibco, #15140) and G-418 ([…]) and used for production of infectious HBV (genotype D). 90% confluent cells from three T175 flasks were trypsinized and transferred into one collagen coated hyperflask (550 mL). Once the cells were confluent, medium was changed to DMEM+Glutamax I medium with 1% DMSO and 2.5% FBS. Once the cells were slightly over confluent, medium was changed to DMEM/F12+Glutamax I medium (Gibco, #31331) supplemented with MEM non-essential aminoacids (6 mL, Gibco, #11140), P/S (6 mL), sodium pyruvate (6 mL), DMSO (9 mL) and FBS (10 mL) (all per 500 mL medium). Medium was changed every 3 days and supernatants were harvested for 2 weeks. Virus was concentrated from supernatants by PEG precipitation and the titer (genome equivalent (GE)/mL) was determined by qPCR. Briefly, supernatants were mixed with 40% PEG solution at a ratio of 4:1, incubated on a shaker at 4° C. overnight and then centrifuged using 50 mL falcon tubes at 4° C. for one hour at 3724 g (RCF). The supernatant was discarded and the centrifugation step was repeated with new supernatant reusing the tubes until all PEG-precipitated supernatant was processed. The pellets were re-suspended in William's E Medium (Gibco, #22551) at a concentration of 10^7-10^9 genome equivalents (GE) per ml and frozen at −80° C. DNA copy number calculation was based on a standard curve generated from HBV plasmid dilutions with known concentrations.
HepaRG cells (Biopredic International, Saint-Gregoire, France) were cultured in working growth medium (500 mL Willams E Medium with 50 mL HepaRG Growth supplement from Biopredic, 5 mL Glutamax-I (Gibco, #35050) and 5 mL Pen/Strep) for 2 weeks. After 2 weeks, medium was changed to differentiation medium containing 1.8% DMSO (500 mL Willams E Medium with 50 mL HepaRG Growth supplement from Biopredic, 5 mL Pen/Strep, 5 mL Glutamax-I and 9 mL DMSO). Medium was changed twice a week up to 2 weeks. Once fully differentiated, cells were trypsinized and seeded into collagenated 96-well plates (50,000 cells/well in 100 μL) or 24-well plates (300,000 cells/well in 500 μL) in differentiation medium. Cells were cultured at least 5 days in the plates before they were infected with HBV.
The combination experimental results were analyzed using the model described by Craig et al. (Craig J, Duncan I, Whittaker L and Roberts N. (1990). Antiviral synergy between inhibitors of HIV proteinase and reverse transcriptase. Antiviral Chem. Chemother. 4:161-166). EC50 values were obtained for compounds used alone and in combination with others. To relate these two values and describe the degree of synergy/additivity/antagonism between them, the Fractional Inhibitory Concentration (FIC) was first calculated and used to generate isobolograms. Briefly, the FIC is the ratio of the EC50 of the drug in combination to the EC50 of the drug on its own: FIC=ratio[EC50combination:EC50alone]
The Combination Index (CI), obtained by adding the FICs of the two compounds, was then used to describe the effect between compounds used in the combinations. A CI<1 means synergism, a CI=1 means additivity and a CI>1 means antagonism.
Each experiment was performed in at least triplicate and performed independently 3 times. Mean percent inhibition of HBV replication based on DNA copy number was calculated from all experiments and analyzed using the Calcusyn software (CalcuSyn Version 2.11, Biosoft, Cambridge, UK) based on the Loewe additivity model described by Chou and Talalay (Chou T C (2006). Theoretical basis, experimental design, and computerized simulation of synergism and antagonism in drug combination studies. Pharmacol. Rev., 58:621-681). For the CalcuSyn evaluation, data from three diagonal lanes with a constant concentration ratio for the drug combinations of each lane from the checkerboard plate were used (marked in bold in Table 2). […]

HBV [2] = settings: HBV infected transgenic mouse model or humanized mouse models; cited from earlier work
[3] = test system: HBV infected HepaRG cells; experiment: CellTiter-Glo cell viability assay of HBV infected and treated HepaRG cells; type: cell-based; settings: individual compound at maximum concentration, day 11 post infection
Procedure: Cell viability of the HBV infected and treated HepaRG cells was determined at day 11 post infection using the CellTiter-Glo® Luminescent Cell Viability Assay (Promega, Cat. No. G7572). 100 μL of CTG reagent were added to each well of the cells, incubated for 10 min and 80 μL of each well were transferred to a new white 96 well plate. Luminescence (0.2 sec) was measured using an Envision reader (PerkinElmer).

[4] = CalcuSyn, HBV DNA, molar ratio 1:0.3
[5] = CalcuSyn, HBV DNA, molar ratio 1:1
[6] = CalcuSyn, HBV DNA, molar ratio 1:3
[7] = individual compound, HBV infected HepaRG cells, HBV DNA, mean of n independent experiments

Nc1ccn([C@@H]2CS[C@H](CO)O2)c(=O)n1 [3TC and 3TC]
CI value at 50% HBV inhibition (HBV [1]; [4]): 1.12 ± 0.24
CI value at 75% HBV inhibition (HBV [1]; [4]): 1.05 ± 0.16
CI value at 90% HBV inhibition (HBV [1]; [4]): 1.02 ± 0.11
CI value at 50% HBV inhibition (HBV [1]; [5]): 0.98 ± 0.12
CI value at 75% HBV inhibition (HBV [1]; [5]): 1.00 ± 0.14
CI value at 90% HBV inhibition (HBV [1]; [5]): 1.06 ± 0.11
CI value at 50% HBV inhibition (HBV [1]; [6]): 1.02 ± 0.22
CI value at 75% HBV inhibition (HBV [1]; [6]): 1.03 ± 0.22
CI value at 90% HBV inhibition (HBV [1]; [6]): 1.08 ± 0.21
Overall CI (HBV [1]; CalcuSyn, molar ratio 1:0.3): 1.06 ± 0.16
Overall CI (HBV [1]; CalcuSyn, molar ratio 1:1): 1.02 ± 0.11
Overall CI (HBV [1]; CalcuSyn, molar ratio 1:3): 1.04 ± 0.19
Assessment of combination effect (HBV [1]; CalcuSyn, based on overall CI values): additivity

COC(=O)C1=C(C)NC(c2ncc(F)cc2F)=N[C@H]1c1ccc(F)cc1Cl [Bay 41-4109]
in vivo efficacy (HBV [2]): demonstrated in vivo efficacy with HBV DNA reduction

COC(=O)C1=C(CN2CCOC[C@H]2C(=O)O)N=C(c2nccs2)N[C@H]1c1ccc(F)cc1Cl [Compound 1, (S)-4-[(R)-6-(2-Chloro-4-fluoro-phenyl)-5-methoxycarbonyl-2-thiazol-2-yl-3,6-dihydro-pyrimidin-4-ylmethyl]-morpholine-3-carboxylic acid]
% cell viability at max concentration ± SD (n) [3]: 96.8 ± 4.2 (3) %
EC50 (HBV [1]; [7]): 21.2 nM

Nc1ccn([C@@H]2CS[C@H](CO)O2)c(=O)n1 [Compound 3TC, Lamivudine]
% cell viability at max concentration ± SD (n) [3]: 86.4 ± 2.6 (3) % and 104.5 ± 2.6 (3) %
EC50 (HBV [1]; [7]): 12.9 nM

CCOC(=O)C1=C(CN2CCN3C(=O)N(CC(C)(C)C(=O)O)C[C@@H]3C2)NC(c2nccs2)=N[C@H]1c1cccc(F)c1C [Compound 4, 3-[(8aS)-7-[[(4S)-5-ethoxycarbonyl-4-(3-fluoro-2-methyl-phenyl)-2-thiazol-2-yl-1,4-dihydropyrimidin-6-yl]methyl]-3-oxo-5,6,8,8a-tetrahydro-1H-imidazo[1,5-a]pyrazin-2-yl]-2,2-dimethyl-propanoic acid]
% cell viability at max concentration ± SD (n) [3]: 96.1 ± 14.5 (3) %
EC50 (HBV [1]; [7]): 8.7 nM

interferon alfa-2a [Roferon]
EC50 ± SD (n) (HBV [1]; [7]): 0.9 IU/mL ± 0.5 (3) and 1.8 IU/ml ± 1.7 (3) IU/mL
